# Experiments:
# human CD3+ T cells = system: human CD3+ T cells
# Description: Freshly prepared and purified human CD3^+ T cells were prepared from healthy donor peripheral blood. 20,000 T cells were loaded into the upper chamber of the Transwell in control, chemotactic or fugetactic settings with AMD3100 at concentrations between 0.1 μM and 10 μM. Migrated cells were counted in the lower chamber and migration quantitated as previously described. Vianello et al. The Journal of Immunology, 2006, 176: 2902-2914; Righi et al., Cancer Res.; 71(16): 5522-34, each of which is incorporated herein in its entirety.
# All wells were run in triplicate.
# human CD3 T cells = settings: T cells incubated with 0.01 μM to 10 mM AMD3100 before addition to the chamber; harvest after 3 h
# Description: For quantitative transmigration assays, purified human CD3′ T cells (approximately 2×10^4 cells) are added to the upper chamber of a Transwell®, insert in each well, to a total volume of 150 μl of Iscove's modified medium.
# To determine the anti-fugetactic concentration of AMD3100, the T cells are incubated with 0.01 μM to 10 mM AMD3100 prior to addition to the chamber.
# Cells are harvested from the lower chamber after 3 h, and cell counts are performed using a hemocytometer.
smiles,measurement,setting,value
c1cc(CN2CCCNCCNCCCNCC2)ccc1CN1CCCNCCNCCCNCC1 [AMD3100],effect on human T cell chemotaxis,"human CD3+ T cells; FIG. 1, AMD3100 0.1 μM to 10 μM",bimodal effect
same,effect on human T cell fugetaxis,"human CD3+ T cells; FIG. 2, AMD3100 0.1 μM to 10 μM, antifugetactic properties observed in a specific range",bimodal effect
same,"chemotactic index (CI), chemotactic response","human CD3+ T cells; chemotactic setting, AMD3100 at 1 μM, CI of 1.0 is the control, FIG. 1, triplicate wells",2.3
same,"chemotactic index (CI), fugetactic response","human CD3+ T cells; fugetactic setting, AMD3100 at 0.1 μM, CI of 1.0 is the control, FIG. 2, triplicate wells",1.6
same,"effect on T cell migration (anti-fugetactic at lower, fugetactic at higher concentrations)",human CD3 T cells,bimodal effect
